Results reported in ChEMBL document CHEMBL1145114, “The combi-targeting concept: chemical dissection of the dual targeting properties of a series of "combi-triazenes"” (J Med Chem, 2003).

Tests used:
[1] = tested on: A-431; test: In vitro inhibition of A431 (human carcinoma) cell basal growth.; format: functional, cell-based
[2] = target: Epidermal growth factor receptor (Homo sapiens, UniProt P00533); test: In vitro inhibition of Epidermal growth factor receptor tyrosine kinase isolated from A431 (human carcinoma).
Sequence of Epidermal growth factor receptor (P00533 whole entry): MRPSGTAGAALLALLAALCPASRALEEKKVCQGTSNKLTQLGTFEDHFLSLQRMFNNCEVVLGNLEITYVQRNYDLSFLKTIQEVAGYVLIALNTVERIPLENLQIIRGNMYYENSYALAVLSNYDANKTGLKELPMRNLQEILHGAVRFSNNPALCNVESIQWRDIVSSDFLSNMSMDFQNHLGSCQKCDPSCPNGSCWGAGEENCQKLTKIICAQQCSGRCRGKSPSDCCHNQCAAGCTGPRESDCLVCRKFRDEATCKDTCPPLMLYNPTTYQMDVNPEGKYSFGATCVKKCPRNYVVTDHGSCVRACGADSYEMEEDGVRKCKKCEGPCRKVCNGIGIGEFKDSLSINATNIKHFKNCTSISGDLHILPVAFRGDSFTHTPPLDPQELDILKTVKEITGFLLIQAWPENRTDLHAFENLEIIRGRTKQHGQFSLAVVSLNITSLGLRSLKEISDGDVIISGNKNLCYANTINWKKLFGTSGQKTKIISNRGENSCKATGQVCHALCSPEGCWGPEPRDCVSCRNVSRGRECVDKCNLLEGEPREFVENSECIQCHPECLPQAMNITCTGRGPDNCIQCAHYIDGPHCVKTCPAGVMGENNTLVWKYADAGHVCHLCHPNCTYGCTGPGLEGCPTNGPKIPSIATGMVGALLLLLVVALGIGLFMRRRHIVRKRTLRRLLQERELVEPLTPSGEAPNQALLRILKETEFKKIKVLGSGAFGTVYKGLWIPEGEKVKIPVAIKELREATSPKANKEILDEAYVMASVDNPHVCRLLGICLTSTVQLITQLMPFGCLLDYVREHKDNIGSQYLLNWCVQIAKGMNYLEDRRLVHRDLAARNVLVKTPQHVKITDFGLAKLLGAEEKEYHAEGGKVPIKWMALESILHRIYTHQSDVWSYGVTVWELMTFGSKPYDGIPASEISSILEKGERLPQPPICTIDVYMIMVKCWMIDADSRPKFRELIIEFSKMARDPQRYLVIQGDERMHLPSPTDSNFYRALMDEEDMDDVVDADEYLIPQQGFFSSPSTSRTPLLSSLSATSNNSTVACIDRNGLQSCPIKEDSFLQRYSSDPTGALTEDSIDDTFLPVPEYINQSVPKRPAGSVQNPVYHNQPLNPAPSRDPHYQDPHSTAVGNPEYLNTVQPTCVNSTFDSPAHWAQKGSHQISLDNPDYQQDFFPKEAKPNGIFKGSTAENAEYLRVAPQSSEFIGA

[3] = tested on: NIH3T3; test: cells; conditions: Mus musculus
Description: Selective inhibition of serum stimulated growth of NIH3T3neu isogenic cells

[4] = tested on: NIH3T3; test: cells; conditions: Mus musculus; remark: listed apart in the source
Description: Selective inhibition of serum stimulated growth of NIH3T3 isogenic cells

SMILES	IC50 [1] [µM]	IC50 [2] [µM]	IC50 [3] [µM]	IC50 [4] [µM]
CN=NNc1ccc2ncnc(NCc3ccccc3)c2c1	20	0.335	34.9	50.3
CN(C)/N=N/c1ccc2ncnc(Nc3cccc(Br)c3)c2c1	100	0.011	3.74	52.5
Cc1cccc(Nc2ncnc3ccc(N)cc23)c1	65		7.2	90
CN(c1ccccc1)c1ncnc2ccc(N)cc12	116	8.4	99.4	71.4
CN=NNc1ccc2ncnc(N(C)c3ccccc3)c2c1	89.5	8	81	30.5
COCC/N=N/Nc1ccc2ncnc(Nc3cccc(Br)c3)c2c1	40		2.98	42.9
CN(C)/N=N/c1ccc2ncnc(Nc3cccc(Cl)c3)c2c1	100	0.014	3.09	60.4
CN(C)CCN=NNc1ccc2ncnc(Nc3cccc(Br)c3)c2c1	12.4	0.038	3.4	16.7
CN(C)/N=N/c1ccc2ncnc(NCc3ccccc3)c2c1	50.3	0.482	33.9	67.3
Cc1cccc(Nc2ncnc3ccc(/N=N/N(C)C)cc23)c1	94	0.024	6.94	50.8
CN(C)/N=N/c1ccc2ncnc(N(C)c3ccccc3)c2c1	29.8	13.3	31.6	47
C/N=N/Nc1ccc2ncnc(Nc3cccc(C)c3)c2c1	23.2		9.69	68.3
CN(c1ccccc1)c1ncnc2ccc(NN=NCc3ccccn3)cc12	25.1	9.3	64.1	39.4
C/N=N/Nc1ccc2ncnc(Nc3cccc(Cl)c3)c2c1	16.7		4.16	32.1
Brc1cccc(Nc2ncnc3ccc(N/N=N/CCN4CCOCC4)cc23)c1	33	0.064	2.92	22.2
Brc1cccc(Nc2ncnc3ccc(NN=NCc4ccccn4)cc23)c1	11.4	0.238	4.06	30.6
Nc1ccc2ncnc(Nc3cccc(Br)c3)c2c1	45		4.1	52.9
C/N=N/Nc1ccc2ncnc(Nc3cccc(Br)c3)c2c1	16		4.32	33
Brc1cccc(Nc2ncnc3ccc(NN=NCc4ccccc4)cc23)c1	20	0.025	11.2	60.2
Nc1ccc2ncnc(NCc3ccccc3)c2c1	25	0.508	33.8	96.7
